How the values were obtained:
Format in all cases: in vivo
rice (Oryza sativa) = assay: Test C flooded paddy test: rice; conditions: scale 0 to 100 (0 no effect, 100 complete control)
Text: Plant species in the flooded paddy test consisted of rice (Oryza sativa), sedge, umbrella (small-flower umbrella sedge, Cyperus difformis), ducksalad (Heteranthera limosa) and barnyardgrass (Echinochloa crus-galli) grown to the 2-leaf stage for testing. At time of treatment, test pots were flooded to 3 cm above the soil surface, treated by application of test compounds directly to the paddy water, and then maintained at that water depth for the duration of the test.
Treated plants and controls were maintained in a greenhouse for 13 to 15 days, after which time all species were compared to controls and visually evaluated. Plant response ratings, summarized in Table C, are based on a scale of 0 to 100 where 0 is no effect and 100 is complete control. A dash (-) response means no test result.

[1] = test system: crabgrass, large (large crabgrass, Digitaria sanguinalis); assay: Test A pre-/postemergence: crabgrass, large; conditions: for Crabgrass, Large plant response rating: Postemergence; for Plant response rating, Crabgrass, Large: Preemergence
How it was run: (§1)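 Whole-plant greenhouse assay in loam/sand. Preemergence directed soil spray plus simultaneous postemergence spray (one- to two-leaf stage, 2–10 cm). Rated visually ~10 days later, 0 = no effect, 100 = complete control.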

[2] = test system: pigweed (Amaranthus retroflexus); assay: Test A pre-/postemergence: pigweed; conditions: for Pigweed plant response rating: Postemergence; for Plant response rating, Pigweed: Preemergence
How it was run: as §1

[3] = test system: sedge, umbrella (small-flower umbrella sedge, Cyperus difformis); assay: Test C flooded paddy test: sedge, umbrella; conditions: scale 0 to 100 (0 no effect, 100 complete control)
How it was run: (§2)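 Plants were grown to the 2-leaf stage, pots flooded to 3 cm above soil, and test compounds applied directly to the paddy water, with that depth held throughout. After 13 to 15 days in a greenhouse, injury was visually rated against controls on a 0 (no effect) to 100 (complete control) scale.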

[4] = test system: barnyardgrass (Echinochloa crus-galli); assay: Test C flooded paddy test: barnyardgrass; conditions: scale 0 to 100 (0 no effect, 100 complete control)
How it was run: as §2

[5] = test system: wheat (Triticum aestivum); assay: Test A pre-/postemergence: wheat; conditions: for Wheat plant response rating: Postemergence; for Plant response rating, Wheat: Preemergence
How it was run: as §1

corn (Zea mays) = assay: Test A pre-/postemergence: corn; conditions: for Corn plant response rating: Postemergence; for Plant response rating, Corn: Preemergence
How it was run: as §1

[6] = test system: ducksalad (Heteranthera limosa); assay: Test C flooded paddy test: ducksalad; conditions: scale 0 to 100 (0 no effect, 100 complete control)
How it was run: as §2

[7] = test system: velvetleaf (Abutilon theophrasti); assay: Test A pre-/postemergence: velvetleaf; conditions: for Velvetleaf plant response rating: Postemergence; for Plant response rating, Velvetleaf: Preemergence
How it was run: as §1

[8] = test system: barnyardgrass (Echinochloa crus-galli); assay: Test A pre-/postemergence: barnyardgrass; conditions: for Barnyardgrass plant response rating: Postemergence; for Plant response rating, Barnyardgrass: Preemergence
How it was run: as §1

[9] = test system: morningglory (Ipomoea spp.); assay: Test A pre-/postemergence: morningglory; conditions: for Morningglory plant response rating: Postemergence; for Plant response rating, Morningglory: Preemergence
How it was run: as §1

[10] = test system: foxtail, giant (giant foxtail, Setaria faberii); assay: Test A pre-/postemergence: foxtail, giant; conditions: for Foxtail, Giant plant response rating: Postemergence; for Plant response rating, Foxtail, Giant: Preemergence
How it was run: as §1

[11] = Flood (flooded paddy test), 125 g ai/ha, visual rating after 13 to 15 days
[12] = Flood (flooded paddy test), 250 g ai/ha, visual rating after 13 to 15 days
[13] = 125 g ai/ha, 0 to 100 scale, 0 is no effect, 100 is complete control
[14] = 500 g ai/ha, visual rating on 0 to 100 scale (0 no effect, 100 complete control), approximately ten days
[15] = 125 g ai/ha, 0 to 100 scale (0 no effect, 100 complete control)
[16] = 500 g ai/ha, 0 to 100 scale, 0 is no effect, 100 is complete control
[17] = 125 g ai/ha, 0 to 100 scale where 0 is no effect and 100 is complete control

Which results are given for `COc1nn(-c2ccc(C(F)(F)F)cc2)nc1C(C)(O)c1ccnc(C(F)(F)F)c1` (stereo not drawn) [Compound 79]?
Plant response rating, Rice (rice (Oryza sativa); [11]): 0; Plant response rating, Rice (rice (Oryza sativa); [12]): 0; Plant response rating, Rice (rice (Oryza sativa); Flood, 31 g ai/ha): 0; Plant response rating, Rice (rice (Oryza sativa); Flood, 62 g ai/ha): 0; Crabgrass, Large plant response rating [1, 13]: 0; Crabgrass, Large plant response rating [1, 14]: 0; Plant response rating, Crabgrass, Large [1, 15]: 0; Plant response rating, Crabgrass, Large [1, 16]: 0; Pigweed plant response rating [2, 13]: 0; Pigweed plant response rating [2, 14]: 0; Plant response rating, Pigweed [2, 15]: 0; Plant response rating, Pigweed [2, 16]: 0; Plant response rating, Sedge, Umbrella [3, 11]: 0; Plant response rating, Sedge, Umbrella [3, 12]: 0; Plant response rating, Sedge, Umbrella ([3]; Flood, 31 g ai/ha): 0; Plant response rating, Sedge, Umbrella ([3]; Flood, 62 g ai/ha): 0; Plant response rating, Barnyardgrass [4, 11]: 0; Plant response rating, Barnyardgrass [4, 12]: 0; Plant response rating, Barnyardgrass ([4]; Flood, 31 g ai/ha): 0; Plant response rating, Barnyardgrass ([4]; Flood, 62 g ai/ha): 0; Wheat plant response rating [5, 13]: 0; Wheat plant response rating [5, 14]: 0; Plant response rating, Wheat [5, 15]: 0; Plant response rating, Wheat [5, 16]: 0; Corn plant response rating (corn (Zea mays); [13]): 0; Corn plant response rating (corn (Zea mays); [14]): 0; Plant response rating, Corn (corn (Zea mays); [15]): 0; Plant response rating, Corn (corn (Zea mays); [16]): 0; Plant response rating, Ducksalad [6, 11]: 0; Plant response rating, Ducksalad [6, 12]: 0; Plant response rating, Ducksalad ([6]; Flood, 31 g ai/ha): 0; Plant response rating, Ducksalad ([6]; Flood, 62 g ai/ha): 0; Velvetleaf plant response rating [7, 13]: 0; Velvetleaf plant response rating [7, 14]: 0; Plant response rating, Velvetleaf [7, 15]: 0; Plant response rating, Velvetleaf [7, 16]: 0; Barnyardgrass plant response rating [8, 13]: 0; Barnyardgrass plant response rating [8, 14]: 0; Plant response rating, Barnyardgrass [8, 15]: 0; Plant response rating, Barnyardgrass [8, 16]: 0; Morningglory plant response rating [9, 13]: 0; Morningglory plant response rating [9, 14]: 0; Plant response rating, Morningglory [9, 15]: 0; Plant response rating, Morningglory [9, 16]: 0; Foxtail, Giant plant response rating [10, 13]: 0; Foxtail, Giant plant response rating [10, 14]: 10; Plant response rating, Foxtail, Giant [10, 15]: 0; Plant response rating, Foxtail, Giant [10, 16]: 0

Which results are given for `Cc1nn(-c2ccc(F)cc2)nc1Oc1ccnc(C(F)(F)F)n1` [Compound 101]?
Plant response rating, Rice (rice (Oryza sativa); [11]): 15; Plant response rating, Rice (rice (Oryza sativa); [12]): 20; Plant response rating, Rice (rice (Oryza sativa); Flood, 31 g ai/ha): 0; Plant response rating, Rice (rice (Oryza sativa); Flood, 62 g ai/ha): 0; Crabgrass, Large plant response rating [1, 13]: 70; Crabgrass, Large plant response rating [1, 14]: 90; Plant response rating, Crabgrass, Large [1, 15]: 100; Plant response rating, Crabgrass, Large [1, 16]: 100; Pigweed plant response rating [2, 13]: 80; Pigweed plant response rating [2, 14]: 90; Plant response rating, Pigweed [2, 17]: 100; Plant response rating, Pigweed [2, 16]: 100; Plant response rating, Sedge, Umbrella [3, 11]: 50; Plant response rating, Sedge, Umbrella [3, 12]: 75; Plant response rating, Sedge, Umbrella ([3]; Flood, 31 g ai/ha): 0; Plant response rating, Sedge, Umbrella ([3]; Flood, 62 g ai/ha): 0; Plant response rating, Barnyardgrass [4, 11]: 55; Plant response rating, Barnyardgrass [4, 12]: 60; Plant response rating, Barnyardgrass ([4]; Flood, 31 g ai/ha): 0; Plant response rating, Barnyardgrass ([4]; Flood, 62 g ai/ha): 0; Wheat plant response rating [5, 13]: 0; Wheat plant response rating [5, 14]: 10; Plant response rating, Wheat [5, 17]: 0; Plant response rating, Wheat [5, 16]: 0; Corn plant response rating (corn (Zea mays); [13]): 10; Corn plant response rating (corn (Zea mays); [14]): 20; Plant response rating, Corn (corn (Zea mays); [15]): 0; Plant response rating, Corn (corn (Zea mays); [16]): 10; Plant response rating, Ducksalad [6, 11]: 50; Plant response rating, Ducksalad [6, 12]: 65; Plant response rating, Ducksalad ([6]; Flood, 31 g ai/ha): 0; Plant response rating, Ducksalad ([6]; Flood, 62 g ai/ha): 20; Velvetleaf plant response rating [7, 13]: 10; Velvetleaf plant response rating [7, 14]: 20; Plant response rating, Velvetleaf [7, 17]: 0; Plant response rating, Velvetleaf [7, 16]: 0; Barnyardgrass plant response rating [8, 13]: 20; Barnyardgrass plant response rating [8, 14]: 60; Plant response rating, Barnyardgrass [8, 15]: 50; Plant response rating, Barnyardgrass [8, 16]: 80; Morningglory plant response rating [9, 13]: 40; Morningglory plant response rating [9, 14]: 40; Plant response rating, Morningglory [9, 17]: 0; Plant response rating, Morningglory [9, 16]: 10; Foxtail, Giant plant response rating [10, 13]: 70; Foxtail, Giant plant response rating [10, 14]: 90; Plant response rating, Foxtail, Giant [10, 17]: 100; Plant response rating, Foxtail, Giant [10, 16]: 100

— patent US9302999B2, “Substituted triazoles as herbicides” (E. I. DU PONT DE NEMOURS AND COMPANY, priority 2012, dated 2016)
